# Laboratory results as given in article PMC10961089, “Epidermal growth factor receptor inhibition potentiates chemotherapeutics‐mediated sensitization of metastatic breast cancer stem cells” (Cancer Reports, 2024).
# Read-outs that look alike come from different tables or passages of the source.
# Assays:
# [1] = test system: MDA‐MB‐231; assay: MTT cytotoxicity assay in MDA-MB-231; format: cell-based, human; conditions: for IC50: 48 h, read-out: IC50 (μM) in MDA‐MB‐231 (mean ± SD)
# Method: (§1) TNBC cell lines (ER^−, PR^−, HER2^−)—MDA‐MB‐231 (ATCC HTB‐26) and MDA‐MB‐468 (ATCC HTB‐132) were procured from ATCC and cultured in Roswell Park Memorial Institute Media (RPMI‐1640) and Dulbecco's Modified Eagle's Medium (DMEM), respectively, supplemented with 10% FBS and 1% Penicillin–Streptomycin solution. Cells were maintained at 5% CO2 at 37°C in a humid atmosphere.[6], [26] The control cell line, Human Embryonic Kidney—HEK‐293 (ATCC CRL‐3216) was also obtained from ATCC and cultured in DMEM.[5], [25]
# (§2) To evaluate the cytotoxicity profile of the potential EGFR inhibitors (compounds) against TNBC cell lines—MDA‐MB‐231, MDA‐MB‐468, and control cell line HEK293, cells were seeded at a cell density of 5 × 10^3 cells/well in complete medium onto 96‐well plates. Here, the non‐tumoral human embryonic kidney (HEK293) epithelial cells have been utilized as a control cell line to compare the IC50 values of the compounds between cancerous and non‐cancerous cell lines with a big therapeutic window. The use of HEK293 cells as compared to other non‐cancerous cell lines are easy to maintain in culture and the results obtained from HEK293 are highly reproducible and consistent.[27] Briefly, the cells were incubated at 37°C for 12 h to attain morphology. After 12 h, cells were serum starved by replacing the complete media with media containing 2% FBS to synchronize the cells. Post‐12 h of synchronization, cells were treated with an increasing concentration (0.1, 1, 10, 100 μM) of all the compounds (1a, 1b, 1c, 1d, 1e, 1f, 1g, 1h, 1i, 1j, 1k). Separately, TNBC cells were treated with increasing concentration (0.01, 0.1, 1 μM) of Doxorubicin (Sigma‐Aldrich, St Louis, MO, USA) in presence of the selected compounds (1c, 1e, 1g, 1h, 1j, and 1k) at 5 μM concentration or combination of selected compounds (1c, 1e, 1g, 1h, 1j, and 1k) at increasing concentration (1, 2.5, 5, 10 μM) in presence of Doxorubicin (0.01 μM) for 48 h. In addition, the CD24^+‐breast cancer cells and CD24^−/CD44^+‐breast CSC populations, being sorted by Magnetic Activated Cell Sorting (MACS) from MDA‐MB‐231 cells as described previously,[6] were also treated with increasing concentrations of Doxorubicin (0.01–1 μM), in the presence or absence of 1e (10–30 μM), or PD153035 (10 μM) (Sigma‐Aldrich, St Louis, MO, USA). MTT assay was performed to evaluate the cytotoxicity of these compounds against the TNBC cell lines, and the sorted populations as described previously.[6] All the experiments were performed thrice and the IC50 values of the compounds and Doxorubicin were calculated using GraphPad Prism software version 9 (San Diego, CA, USA). Similarly, the percent inhibition of the sorted cell populations by chemotherapeutic drug, doxorubicin in the absence/presence of potent compound 1e or standard EGFR inhibitor, PD153035 was evaluated utilizing GraphPad Prism Version 9 (San Diego, CA, USA).
# [2] = test system: MDA‐MB‐468; assay: MTT cytotoxicity assay in MDA-MB-468; format: cell-based, human; conditions: for IC50: 48 h, read-out: IC50 (μM) in MDA‐MB‐468 (mean ± SD); for decrease in the IC50 of Doxorubicin in the presence of the compound: MDA-MB-468, versus Doxorubicin alone
# Method: as §1, §2
# [3] = test system: HEK‐293; assay: MTT cytotoxicity assay in control cell line HEK-293; format: cell-based, human; conditions: non-tumoral control cell line, read-out: IC50 (μM) in HEK‐293 (mean ± SD)
# Method: as §1, §2
# [4] = test system: Bax and Cytochrome‐C in MDA‐MB‐231 cells; assay: Gene expression of apoptotic genes, semi-quantitative RT-PCR; format: cell-based, human; conditions: MDA-MB-231, doxorubicin + compound 5 μM, 24 h
# Method: Briefly, the cells were incubated at 37°C with serum starvation followed by culturing as described above. […] Briefly, the template RNA (1 μg) was utilized for cDNA synthesis using a First‐strand cDNA synthesis kit (Thermo Scientific, USA) according to the manufacturer's protocol. Thermal cycler (Mastercycler® nexus, Eppendorf) was used for the amplification of the expression of apoptotic genes—Bax, Bcl2, Cytochrome‐C, and target gene EGFR with the help of Dream Taq DNA Polymerase PCR Master Mix (Thermo Scientific, USA) along with human gene‐specific forward and reverse primer sequences of the apoptotic genes and EGFR (Table ST1). The expression of the target genes was normalized to the Eukaryotic 18S rRNA.
# [5] = test system: MDA‐MB‐468; assay: Cell migration (chemotaxis), Boyden-Chamber assay; format: cell-based, human; conditions: Doxorubicin 0.01 μM + compound 5 μM (PD153035 10 μM) vs 10% FBS and Doxorubicin alone
# Method: (§3) TNBC cell lines—MDA‐MB‐231, MDA‐MB‐468, and the sorted CD24^+‐breast cancer cells, and CD24^−/CD44^+‐breast CSC populations from MDA‐MB‐231 [6] were seeded at a density of 1 × 10^6 cells/well to evaluate their migratory potential by Boyden‐Chamber assay. […] At the end of the treatment period, the cells were plated at a density of 5 × 10^3 cells/well in the upper chamber of the Boyden chamber assembly and 10% FBS in the lower chamber was used as a chemoattractant. Separately, the cells in the upper chamber were treated with Doxorubicin (0.01–0.1 μM) alone or with the potential EGFR inhibitors (compounds—1c, 1e, 1g, 1h, 1j, and 1k (5 μM) based on their low IC50 values) or a commercial EGFR inhibitor, PD153035 (10 μM) and incubated for 4 h followed by fixation and staining as described previously.[28], [29]
# [6] = test system: MDA‐MB‐231; assay: Cell migration (chemotaxis), Boyden-Chamber assay; format: cell-based, human; conditions: Doxorubicin 0.01 μM + compound 5 μM (PD153035 10 μM) vs 10% FBS and Doxorubicin alone
# Method: as §3
# [7] = test system: CD24^−/CD44^+‐breast CSCs xenotransplanted tumors; assay: Preclinical orthotopic xenograft murine tumor model (tumor size, weight, H&E histology); format: in vivo, C57BL/6 mice; conditions: doxorubicin high dose 10 mg/kg intratumoral vs untreated breast CSCs transplanted group
# Method: Animal studies have been carried out with the prior approval of the Institutional Animal Ethics Committee (IICT/IAEC/025/2023). C57BL/6 female mice of age 6–8 weeks (N = 35) were initially immunosuppressed with cyclophosphamide (50 mg/kg of body weight, i.p) on alternate days for 2 weeks. For generating a preclinical orthotopic xenograft tumor model, 2 × 10^6 GFP expressing sorted stable CD24^+‐breast cancer cells and CD24^−/CD44^+‐breast CSCs were orthotopically xeno‐transplanted subcutaneously at the fourth mammary fat pad of immune‐suppressed mice (n = 5/group). Subsequently, intratumoral administration of Doxorubicin at a low dose (2.5 mg/kg of body weight), high dose (10 mg/kg of body weight), and/or combinatorial treatment of the potent EGFR inhibitor, compound 1e (50 mg/kg of body weight) or the commercial EGFR inhibitor, PD153035 (50 mg/kg of body weight) with a low dose of doxorubicin was performed to the palpable tumors of breast CSCs at day‐3 post‐transplantation.
# Euthanization of mice was performed on day 14 post‐transplantation and tumor tissues were collected for histological and immunohistochemical analysis. Histological differences in tumor tissues were evaluated using hematoxylin and eosin staining (H&E).[28], [30]
Structure (SMILES),"IC50 ([1]; compound alone, MTT) [µM]","IC50 ([2]; compound alone, MTT) [µM]",IC50 ([3]; compound alone) [µM],expression of pro‐apoptotic genes Bax and Cytochrome‐C [4],decrease in the IC50 of Doxorubicin in the presence of the compound [2] [fold],further results
c1ccc2c(C(c3c[nH]c4ccccc34)c3c[nH]c4ccccc34)c[nH]c2c1 [1b],22.1 ± 1.96,90.8 ± 7.87,231 ± 15.9,,,
Oc1ccc(C(c2c[nH]c3ccccc23)c2c[nH]c3ccccc23)cc1 [1c],30.5 ± 2.93,25 ± 2.41,127 ± 16.8,marked increase,10,migratory potential [5]: significant decrease; migratory potential [6]: significant decrease
c1ccc(C(c2c[nH]c3ccccc23)c2c[nH]c3ccccc23)nc1 [1d],44.4 ± 2.11,47.6 ± 5.99,219 ± 11.6,,,
CN(C)c1ccc(C(c2c[nH]c3ccccc23)c2c[nH]c3ccccc23)cc1 [1f],73 ± 1.13,130 ± 7.76,≥ 1000,,,
c1ccc2c(C(c3c[nH]c4ccccc34)C(c3c[nH]c4ccccc34)c3c[nH]c4ccccc34)c[nH]c2c1 [1g],≥ 1000,29.6 ± 6.04,≥ 1000,marked increase,10,migratory potential [5]: significant decrease; migratory potential [6]: significant decrease
COc1cc(C(c2c[nH]c3ccccc23)c2c[nH]c3ccccc23)ccc1O [1j],114 ± 1.25,68.4 ± 5.51,327 ± 20.7,marked increase,10,
"c1ccc2c(C(c3ccc(C(c4c[nH]c5ccccc45)c4c[nH]c5ccccc45)cc3)c3c[nH]c4ccccc34)c[nH]c2c1 [1k, 1,4‐bis(di(1H‐indol‐3‐yl)methyl)benzene]",,,,marked increase,10,"IC50 ([1]; Homo sapiens, MDA-MB-231, 48 h, compound alone, MTT): 14.7 ± 1.36 µM; IC50 ([2]; Homo sapiens, MDA-MB-468, compound alone, MTT): 20.4 ± 2.41 µM; IC50 ([3]; Homo sapiens, HEK293, compound alone): 235 ± 12.5 µM"
"COc1cccc2c1C(=O)c1c(O)c3c(c(O)c1C2=O)C[C@@](O)(C(=O)CO)C[C@@H]3O[C@H]1C[C@H](N)[C@H](O)[C@H](C)O1 [Doxorubicin, reference compound]",,,,,,"IC50 ([1]; Homo sapiens, MDA-MB-231, 48 h, IC50 of doxorubicin alone or in presence of compound at 5 μM): 0.1 µM; inhibition at 0.01 µM ([1]; Homo sapiens, MDA-MB-231, Doxorubicin 0.01 µM alone, read-out: Percent inhibition (%) in MDA-MB-231 (Mean ± SEM)): 21.1 ± 0.701%; IC50 ([1]; IC50 of doxorubicin alone or in presence of compound at 5 μM): 0.11 ± 0.01 µM; inhibition at 0.01 µM ([2]; Homo sapiens, MDA-MB-468, Doxorubicin 0.01 µM alone, read-out: Percent inhibition (%) in MDA-MB-468 (Mean ± SEM)): 19.1 ± 1.08%; IC50 ([2]; Homo sapiens, MDA-MB-468, IC50 of doxorubicin alone or in presence of compound at 5 μM): 0.4 ± 0.008 µM; tumor size and weight [7]: significantly lower"
